Experimental data published in PMC4001449, “Thienoquinolines as Novel Disruptors of the PKCε/RACK2 Protein–Protein Interaction” (Journal of Medicinal Chemistry, 2014).

Experiments:
[1] = test system: HeLa cells with doxycycline-inducible PKCε; assay: Invasion of HeLa cells through a reconstituted basement membrane matrix; format: cell-based; details: PKCε induced with doxycycline, Figure 6C
Protocol: (§1) Figure 6 Compound 8 inhibits MARCKS phosphorylation, cell proliferation, and invasion following treatment with 8. (A) HeLa cells were starved for 16 h in medium without fetal calf serum. Subsequently, they were treated with 50 μM solution of compound 8 for 30 min and 100 nM TPA for the last 10 min. An amount of 150 μg of protein from lysed cells was loaded onto SDS 8–16% gels. Tubulin was used as loading control. Below a representative blot, a bar graph corresponding to quantitative scans of three independent experiments (±SD) is shown. (B) Cell proliferation following treatment of HeLa and PC-3 cells with 8. The mean values (±SD) of three independent experiments, in which three samples were taken within each experiment, are shown. (C) Invasion of cells through a membrane. Cell invasion was determined as described in Experimental Section. In HeLa cells with a doxycycline-inducible PKCε the expression of PKCε was induced with doxycycline (control + Dox). The mean of three experiments (±SD) is shown: (∗) p = 0.03. The data are normalized to the control (100%). Therefore, the standard deviation for the control is 0.
For cell migration and motility, a scratch migration assay described by Cha et al.[41] was employed. […] Invasion of HeLa cells through a reconstituted basement membrane matrix was determined with a cell invasion assay kit from Chemicon (no. ECM550) as described by the manufacturer.

RSK2 = RSK2 (Homo sapiens, UniProt P51812); assay: Kinase profiling (Dundee), RSK2; format: biochemical; details: 25 μM solution
RSK2, sequence (P51812 whole entry, species assumed): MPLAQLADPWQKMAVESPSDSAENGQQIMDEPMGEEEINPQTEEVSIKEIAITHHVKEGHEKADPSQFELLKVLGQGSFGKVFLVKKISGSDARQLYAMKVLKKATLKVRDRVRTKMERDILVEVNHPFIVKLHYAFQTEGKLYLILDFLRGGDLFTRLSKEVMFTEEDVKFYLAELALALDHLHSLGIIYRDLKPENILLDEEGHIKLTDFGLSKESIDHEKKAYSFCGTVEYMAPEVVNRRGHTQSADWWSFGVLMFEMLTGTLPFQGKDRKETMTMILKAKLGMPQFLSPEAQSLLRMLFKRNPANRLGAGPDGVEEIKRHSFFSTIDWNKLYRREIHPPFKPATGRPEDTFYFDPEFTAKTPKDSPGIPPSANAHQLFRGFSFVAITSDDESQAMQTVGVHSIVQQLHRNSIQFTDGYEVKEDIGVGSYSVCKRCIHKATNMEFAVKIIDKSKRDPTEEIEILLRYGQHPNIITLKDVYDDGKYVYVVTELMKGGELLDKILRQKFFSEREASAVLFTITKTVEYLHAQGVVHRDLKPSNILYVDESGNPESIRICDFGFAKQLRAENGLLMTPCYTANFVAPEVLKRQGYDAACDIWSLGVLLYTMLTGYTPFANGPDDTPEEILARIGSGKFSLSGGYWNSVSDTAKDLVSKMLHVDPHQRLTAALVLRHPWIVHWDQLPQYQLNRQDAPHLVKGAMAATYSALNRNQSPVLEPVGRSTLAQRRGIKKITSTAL

[2] = test system: 109 different protein kinases; assay: Screen of 109 kinases (Dundee); format: biochemical; details: 25 μM solution; many kinases
MARCKS phosphorylation = MARCKS phosphorylation in HeLa cells (Western blot); format: cell-based; details: 50 μM for 30 min, 100 nM TPA last 10 min
Protocol: as §1
For PKCε translocation PC-3 cells were starved for 16 h, treated with 8 for 30 min, stimulated with 50 nM TPA for 5 min, lysed, and fractionated with a CNMCS/CNM compartmental protein extraction kit (BioChain Institute, Newark, CA). […]

PKCδ = PKCδ translocation, cell fractionation and Western blotting in PC-3 cells; format: cell-based, human; details: TPA, Figure 3
Protocol: For PKCε translocation PC-3 cells were starved for 16 h, treated with 8 for 30 min, stimulated with 50 nM TPA for 5 min, lysed, and fractionated with a CNMCS/CNM compartmental protein extraction kit (BioChain Institute, Newark, CA). Western blotting was performed by a standard procedure as described by Garczarczyk et al.[27],[40] Cytosolic and membrane fractions were loaded onto SDS gels and transferred to an Immobilon membrane (Millipore, Billerica, MA). The membranes were incubated with rabbit polyclonal IgG antibodies for detection of PKCε (Santa Cruz Biotechnology; dilution 1:2000), for PKCε phosphoSer^729 (Millipore; dilution 1:1000), for PKCδ (Santa Cruz Biotechnology; dilution 1:1000), and for MARCKS phosphoSer152/156 (Cell Signaling Technology, Danvers, MA; dilution 1:1000). For the loading control tubulin (Santa Cruz Biotechnology; dilution 1:1000), and as marker for the membrane fraction, an IGFI-βR rabbit polyclonal IgG antibody (Santa Cruz; dilution 1:1000) and, as secondary antibodies, peroxidase-conjugated AffiniPure goat anti-rabbit IgG (Jackson ImmunoResearch Laboratories, West Grove, PA; dilution 1:20000) were used. GAPDH (Chemicon, Millipore, Billerica, MA; dilution 1:10000) was used as loading control for the cytosolic fraction. […]

PKCε = PKCε translocation by immunofluorescence in PC-3 cells; format: cell-based, human; details: Figure 4
Protocol: PC-3 cells were grown on glass coverslips coated with poly-L-lysine (Sigma-Aldrich). After treatment with 8 for 30 min and with 100 nM TPA for 5 min, the cells were rinsed twice with phosphate buffered saline (PBS) and fixed with filter sterilized 4% (w/v) paraformaldehyde/4% sucrose (w/v) (both from Sigma-Aldrich) in PBS at room temperature for 10 min. Subsequently the cells were washed three times with PBS and permeabilized with 0.2% Triton X-100/0.2% IgG-free BSA in PBS at room temperature for 10 min. After blocking with 5% normal goat serum diluted in PBS as described above for 30 min, cells were incubated with the primary antibodies for PKCε (Santa Cruz; diluted 1:500) in 0.2% Triton X-100/0.2% IgG-free BSA in PBS at 4 °C overnight. Subsequently, the cells were washed three times with the same buffer and incubated with the labeled secondary antibody (Alexa Fluor, Invitrogen, Life Technologies, Carlsbad, CA; 1:4000) at room temperature for 1 h. After three more washes with 0.2% Triton X-100/0.2% IgG-free BSA in PBS, cells were mounted with Mowiol (Sigma-Aldrich) and images were taken with an Olympus BX 50 optical microscope (Olympus Corporation, Tokyo, Japan).

[3] = test system: HeLa cells containing a doxycycline-inducible constitutively active PKCε; assay: Scratch migration assay; format: cell-based; details: 25 μM, 24 h, doxycycline 2 μg/mL
Protocol: For cell migration and motility, a scratch migration assay described by Cha et al.[41] was employed. In a tissue culture dish, with logarithmically growing HeLa cells containing a doxycycline-inducible constitutively active PKCε, a migration gap of approximately 1 mm was created by introducing a “scratch” to the adherent layer of cultured cells using a sterile Gilson 200 μL pipet tip. The scratch was administered by hand with sufficient pressure to remove adherent cells from the polystyrene substrate but without causing physical damage to the polystyrene surface. The dish was washed with PBS to remove the cells and further incubated with 2 μg/mL doxycycline and 25 μM 8 for 24 h. Controls were left either untreated or were incubated with 2 μg/mL doxycycline and DMSO. […] Invasion of HeLa cells through a reconstituted basement membrane matrix was determined with a cell invasion assay kit from Chemicon (no. ECM550) as described by the manufacturer.

[4] = test system: VEGF-induced angiogenesis in chicken egg; assay: Chicken egg angiogenesis assay; format: in vivo; details: Figure 8
Protocol: Eggs from hen were incubated at 37 °C for 3 days, opened, and incubated for further 7 days. After further incubation for 5 days, angiogenesis was observed by microscope.

`CC(=O)c1cccc(NC(=O)c2sc3nc4cc5c(cc4cc3c2N)OCCO5)c1` [Compound 8, N-(3-acetylphenyl)-9-amino-2,3-dihydro-1,4-dioxino[2,3-g]thieno[2,3-b]quinoline-8-carboxamide] was tested, and the “Invasion of cells through an extracellular matrix” value [1] was “inhibited”, the “RSK2 activity, % of control” value (RSK2) was 27 % of control and the “Effect on kinases in a screen of 109 kinases” value [2] was “not or only slightly affected”. For the same compound, the “Phosphorylation of MARCKS” value (MARCKS phosphorylation) was “inhibited”, the “PKCδ in the membrane” value (PKCδ) was “did not decrease” and the “TPA-induced PKCε translocation to the plasma membrane (immunocytochemistry)” value (PKCε) was “prevented”. For the same compound, the “PKCε-induced migration of cells into a gap” value [3] was “inhibited” and the “Induction of angiogenesis by vascular endothelial growth factor” value [4] was “inhibited”.
